Results from PubChem BioAssay (NCI).
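Five compound concentrations were applied to cells in 96-well plates for 48 hours; endpoints were derived by simple linear interpolation of the resulting dose-response curve. GI50 is the concentration that inhibits growth by half. TGI: concentration producing complete growth inhibition.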

Legend:
Assay in all cases: NCI tumour cell line growth inhibition, 48 h
[1] = system: HT29 colon
[2] = system: SNB-75 CNS
[3] = system: MALME-3M melanoma
[4] = system: UACC-257 melanoma
[5] = system: SK-MEL-2 melanoma
[6] = system: MCF7 breast
[7] = system: CCRF-CEM leukemia
[8] = system: SK-OV-3 ovarian
[9] = system: HS 578T breast
[10] = system: NCI-H460 lung
[11] = system: 786-0 renal
[12] = system: T-47D breast
[13] = system: LOX IMVI melanoma
[14] = system: U251 CNS
[15] = system: UO-31 renal
[16] = system: K-562 leukemia
[17] = system: BT-549 breast
[18] = system: M14 melanoma
[19] = system: MDA-MB-231 breast
[20] = system: MDA-MB-435
[21] = system: RPMI-8226 leukemia
[22] = system: SNB-19 CNS
[23] = system: PC-3 prostate
[24] = system: SN12C renal
[25] = system: IGROV1 ovarian
[26] = system: SF-268 CNS
[27] = system: ACHN renal
[28] = system: NCI-H226 lung
[29] = system: OVCAR-5 ovarian
[30] = system: SF-295 CNS
[31] = system: HCT-116 colon
[32] = system: OVCAR-3 ovarian
[33] = system: TK-10 renal
[34] = system: NCI-H522 lung
[35] = system: OVCAR-4 ovarian
[36] = system: NCI/ADR-RES ovarian
[37] = system: NCI-H23 lung
[38] = system: DU-145 prostate
[39] = system: RXF 393 renal
[40] = system: A498 renal
[41] = system: HOP-62 NSCLC
[42] = system: A549 NSCLC
[43] = system: HL-60(TB) leukemia
[44] = system: HOP-92 NSCLC
[45] = system: SK-MEL-28 melanoma
[46] = system: SW-620 colon
[47] = system: HCT-15 colon
[48] = system: HCC-2998 colon
[49] = system: COLO 205 colon
[50] = system: MOLT-4 leukemia
[51] = system: KM12 colon
[52] = system: UACC-62 melanoma
[53] = system: SK-MEL-5 melanoma
[54] = system: CAKI-1 renal
[55] = system: SR leukemia
[56] = system: OVCAR-8 ovarian
[57] = system: SF-539 CNS

Work on `CC/C(=C(/c1ccc(O)cc1)c1ccc(OCCN)cc1)c1ccccc1` yielded a GI50 [1] of 2.49 µM, a TGI [1] of 5.78 µM and a GI50 [2] of 1.86 µM. The TGI [2] was 12.1 µM, the GI50 [3] was 1.69 µM and the TGI [3] was 3.53 µM. For the same molecule, the GI50 [4] was 10.5 µM, the TGI [4] was 22.7 µM and the GI50 [5] was 3.6 µM. The TGI [5] was 8.55 µM, the GI50 [6] was under 0.0233 µM and the TGI [6] was 3.99 µM. For the same molecule, the GI50 [7] was 2.87 µM, the TGI [7] was 8.77 µM and the GI50 [8] was 5.06 µM. It also gave a TGI [8] of 18 µM, a GI50 [9] of 2.82 µM and a TGI [9] of 12.8 µM. The GI50 [10] was 1.96 µM, the TGI [10] was 3.95 µM and the GI50 [11] was 2.69 µM. It also gave a TGI [11] of 7.28 µM, a GI50 [12] of 1.67 µM and a TGI [12] of 5.94 µM. It also gave a GI50 [13] of 1.76 µM, a TGI [13] of 3.23 µM and a GI50 [14] of 1.82 µM. For the same molecule, the TGI [14] was 3.86 µM, the GI50 [15] was 2.72 µM and the TGI [15] was 8.57 µM. The GI50 [16] was 2.03 µM, the TGI [16] was 4.72 µM and the GI50 [17] was 6.31 µM. The TGI [17] was 19.6 µM, the GI50 [18] was 1.81 µM and the TGI [18] was 3.48 µM. For the same molecule, the GI50 [19] was 1.98 µM, the TGI [19] was 5.23 µM and the GI50 [20] was 1.63 µM. The TGI [20] was 3.42 µM, the GI50 [21] was 2.37 µM and the TGI [21] was 5.65 µM. For the same molecule, the GI50 [22] was 4.95 µM, the TGI [22] was 19 µM and the GI50 [23] was 2.66 µM. For the same molecule, the TGI [23] was 8.26 µM, the GI50 [24] was 3.02 µM and the TGI [24] was 9.67 µM. The GI50 [25] was 4.62 µM, the TGI [25] was 15.5 µM and the GI50 [26] was 3.09 µM. The TGI [26] was 9.58 µM, the GI50 [27] was 2.4 µM and the TGI [27] was 6.76 µM. It also gave a GI50 [28] of 11.6 µM, a TGI [28] of 30.7 µM and a GI50 [29] of 6.26 µM. The TGI [29] was 20.2 µM, the GI50 [30] was 1.86 µM and the TGI [30] was 4 µM. For the same molecule, the GI50 [31] was 1.91 µM, the TGI [31] was 4.08 µM and the GI50 [32] was 2.96 µM. The TGI [32] was 8.01 µM, the GI50 [33] was 4.91 µM and the TGI [33] was 10.2 µM. It also gave a GI50 [34] of 4.26 µM, a TGI [34] of 9.36 µM and a GI50 [35] of 2.88 µM. It also gave a TGI [35] of 16 µM, a GI50 [36] of 3.31 µM and a TGI [36] of 10.6 µM. It also gave a GI50 [37] of 4.56 µM, a TGI [37] of 16.5 µM and a GI50 [38] of 3.5 µM. The TGI [38] was 10.8 µM, the GI50 [39] was 2.17 µM and the TGI [39] was 7.07 µM. The GI50 [40] was 2.49 µM, the TGI [40] was 16.8 µM and the GI50 [41] was 3.3 µM. For the same molecule, the TGI [41] was 10.7 µM, the GI50 [42] was 2.97 µM and the TGI [42] was 8.81 µM. The GI50 [43] was 2.18 µM, the TGI [43] was 5.36 µM and the GI50 [44] was 1.46 µM. It also gave a TGI [44] of 5.84 µM, a GI50 [45] of 1.75 µM and a TGI [45] of 3.38 µM. It also gave a GI50 [46] of 1.87 µM, a TGI [46] of 3.91 µM and a GI50 [47] of 1.91 µM. The TGI [47] was 4.06 µM, the GI50 [48] was 1.95 µM and the TGI [48] was 3.72 µM. For the same molecule, the GI50 [49] was 1.95 µM, the TGI [49] was 3.75 µM and the GI50 [50] was 3 µM. For the same molecule, the TGI [50] was 9.07 µM, the GI50 [51] was 1.97 µM and the TGI [51] was 3.9 µM. For the same molecule, the GI50 [52] was 2.44 µM, the TGI [52] was 7.43 µM and the GI50 [53] was 1.97 µM. For the same molecule, the TGI [53] was 4.3 µM, the GI50 [54] was 1.64 µM and the TGI [54] was 4.18 µM. For the same molecule, the GI50 [55] was 1.78 µM, the TGI [55] was 4.53 µM and the GI50 [56] was 3.12 µM. For the same molecule, the TGI [56] was 9.94 µM, the GI50 [57] was 3.73 µM and the TGI [57] was 8.01 µM.
`CCOC(=O)Nc1nc2ccc(Br)cc2s1` gave a GI50 [1] of over 50 µM, a TGI [1] of over 50 µM and a GI50 [2] of over 50 µM. It also gave a TGI [2] of over 50 µM, a GI50 [3] of over 50 µM and a TGI [3] of over 50 µM. The GI50 [4] was over 50 µM, the TGI [4] was over 50 µM and the GI50 [5] was over 50 µM. For the same molecule, the TGI [5] was over 50 µM, the GI50 [6] was over 50 µM and the TGI [6] was over 50 µM. The GI50 [7] was over 50 µM, the TGI [7] was over 50 µM and the GI50 [8] was over 50 µM. It also gave a TGI [8] of over 50 µM, a GI50 [9] of over 50 µM and a TGI [9] of over 50 µM. For the same molecule, the GI50 [10] was over 50 µM, the TGI [10] was over 50 µM and the GI50 [11] was over 50 µM. The TGI [11] was over 50 µM, the GI50 [12] was over 50 µM and the TGI [12] was over 50 µM. The GI50 [13] was over 50 µM, the TGI [13] was over 50 µM and the GI50 [14] was over 50 µM. For the same molecule, the TGI [14] was over 50 µM, the GI50 [15] was over 50 µM and the TGI [15] was over 50 µM. The GI50 [16] was over 50 µM, the TGI [16] was over 50 µM and the GI50 [17] was over 50 µM. The TGI [17] was over 50 µM, the GI50 [18] was over 50 µM and the TGI [18] was over 50 µM. It also gave a GI50 [19] of over 50 µM, a TGI [19] of over 50 µM and a GI50 [20] of over 50 µM. It also gave a TGI [20] of over 50 µM, a GI50 [21] of over 50 µM and a TGI [21] of over 50 µM. The GI50 [22] was over 50 µM, the TGI [22] was over 50 µM and the GI50 [23] was over 50 µM. The TGI [23] was over 50 µM, the GI50 [24] was over 50 µM and the TGI [24] was over 50 µM. For the same molecule, the GI50 [25] was over 50 µM, the TGI [25] was over 50 µM and the GI50 [26] was over 50 µM. It also gave a TGI [26] of over 50 µM, a GI50 [27] of over 50 µM and a TGI [27] of over 50 µM. For the same molecule, the GI50 [28] was over 50 µM, the TGI [28] was over 50 µM and the GI50 [29] was over 50 µM. The TGI [29] was over 50 µM, the GI50 [30] was over 50 µM and the TGI [30] was over 50 µM. For the same molecule, the GI50 [31] was over 50 µM, the TGI [31] was over 50 µM and the GI50 [32] was over 50 µM. For the same molecule, the TGI [32] was over 50 µM, the GI50 [33] was over 50 µM and the TGI [33] was over 50 µM. It also gave a GI50 [34] of over 50 µM, a TGI [34] of over 50 µM and a GI50 [35] of over 50 µM. For the same molecule, the TGI [35] was over 50 µM, the GI50 [36] was over 50 µM and the TGI [36] was over 50 µM. It also gave a GI50 [37] of over 50 µM, a TGI [37] of over 50 µM and a GI50 [38] of over 50 µM. It also gave a TGI [38] of over 50 µM, a GI50 [39] of over 50 µM and a TGI [39] of over 50 µM. For the same molecule, the GI50 [40] was over 50 µM, the TGI [40] was over 50 µM and the GI50 [41] was over 50 µM. The TGI [41] was over 50 µM, the GI50 [42] was over 50 µM and the TGI [42] was over 50 µM. It also gave a GI50 [43] of over 50 µM, a TGI [43] of over 50 µM and a GI50 [44] of over 50 µM. It also gave a TGI [44] of over 50 µM, a GI50 [45] of over 50 µM and a TGI [45] of over 50 µM. It also gave a GI50 [46] of over 50 µM, a TGI [46] of over 50 µM and a GI50 [47] of over 50 µM. The TGI [47] was over 50 µM, the GI50 [48] was over 50 µM and the TGI [48] was over 50 µM. It also gave a GI50 [49] of over 50 µM, a TGI [49] of over 50 µM and a GI50 [50] of over 50 µM. The TGI [50] was over 50 µM, the GI50 [51] was over 50 µM and the TGI [51] was over 50 µM. For the same molecule, the GI50 [52] was over 50 µM, the TGI [52] was over 50 µM and the GI50 [53] was over 50 µM. For the same molecule, the TGI [53] was over 50 µM, the GI50 [54] was over 50 µM and the TGI [54] was over 50 µM. For the same molecule, the GI50 [55] was over 50 µM, the TGI [55] was over 50 µM and the GI50 [56] was over 50 µM. For the same molecule, the TGI [56] was over 50 µM, the GI50 [57] was over 50 µM and the TGI [57] was over 50 µM.
